Experimental data from PMC9189904, “Functional Properties of Two Distinct PTH1R Mutants Associated With Either Skeletal Defects or Pseudohypoparathyroidism” (JBMR Plus, 2022).
Changes are numbered by the printed parent chain. Non-standard residues stand in square brackets, D forms with d. Residues, ends and D or L forms follow the SMILES beside them. No end group written: not given here. hArg = N=C(N)NCCCC[C@H](N)C(=O)O; Ac5c = NC1(C(=O)O)CCCC1; Aib = CC(C)(N)C(=O)O

How the values were obtained:
[1] = biological target: T1, PTH1R‐R186H (Homo sapiens, UniProt Q03431, R186H); test: GloSensor cAMP signaling assay in transiently transfected GS-22a cells; assay type: cell-based; conditions: for EC50: Table 2, N-terminal analogs, means of four or three (M-PTH(1-11)) experiments, each in duplicate; for EC50 / pEC50: GS-22a cells; for pEC50: Suppl. Table 2, full-length ligands, mean ± SEM of three experiments; for Emax, %: Suppl. Table 2, percent of maximum response of the same ligand on PTH1R-WT, three experiments
T1 construct: expressed in transfected cells; plasmid TG-907 made by VectorBuilder
T1 sequence (Q03431 27-593 E90Y/S91D/E92V/E93P/K95Y/E96A/R186H): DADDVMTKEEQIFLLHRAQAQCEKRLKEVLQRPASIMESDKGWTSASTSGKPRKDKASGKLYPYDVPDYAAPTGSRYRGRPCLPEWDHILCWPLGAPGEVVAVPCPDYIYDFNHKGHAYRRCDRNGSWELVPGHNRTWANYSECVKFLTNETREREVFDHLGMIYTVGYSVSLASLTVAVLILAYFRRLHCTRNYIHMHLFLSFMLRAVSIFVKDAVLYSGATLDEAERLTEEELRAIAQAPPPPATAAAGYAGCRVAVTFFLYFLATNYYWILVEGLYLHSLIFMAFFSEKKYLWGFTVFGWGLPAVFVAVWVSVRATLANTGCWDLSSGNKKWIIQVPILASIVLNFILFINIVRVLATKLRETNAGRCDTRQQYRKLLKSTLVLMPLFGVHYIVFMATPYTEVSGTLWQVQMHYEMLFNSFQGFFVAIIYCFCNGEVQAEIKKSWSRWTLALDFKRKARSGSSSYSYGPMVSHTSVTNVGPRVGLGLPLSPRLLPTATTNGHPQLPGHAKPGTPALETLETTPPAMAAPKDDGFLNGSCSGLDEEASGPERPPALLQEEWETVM
Description: (§1) GS‐22a cells are derived from HEK293 cells (American Type Culture Collection [ATCC], Manassas, VA, USA; CRL‐1573) by stably transfection with the luciferase‐based GloSensor (Promega, San Luis Obispo, CA, USA) cAMP reporter plasmid pGloSensor‐22F. The cells were cultured in Dulbecco's modified Eagle medium (DMEM) supplemented with fetal bovine serum (10%) in a humidified incubator containing 5% CO2 and set at 37°C, and seeded into 96‐well or six‐well plates for transient DNA transfection and functional assays. Cells were transfected when the monolayers were 85%–95% of confluency using Lipofectamine™ 2000 (Thermo Fisher Scientific, Waltham, MA, USA) and 100 ng of DNA per well for 96‐well plates and 1000 ng of DNA per well for six‐well plates. Assays were performed 48 hours after transfection, and media was changed 2–4 hours prior to assay.
(§2) PTH1R‐mediated cAMP signaling was assessed via the GloSensor cAMP reporter in GS‐22a cells in white 96‐well plates. Assays were performed at ambient room temperature. For each plate, the media was replaced with CO2‐independent media (Thermo Fisher Scientific; Cat. No. 18045088) containing luciferin (0.5mM) and the plate was placed into a PerkinElmer Envision plate reader and cAMP‐dependent luminescence, as counts per second (cps), was measured at 2‐minute intervals for 15 minutes, during which time luciferin uptake occurred and luminescence reached a near steady‐state baseline. The plate was then removed from the plate reader, media (vehicle) or test ligands were added at varying concentrations, and luminescence was again measured at 2‐minute intervals for an additional 30–60 minutes.
(§3) Data were processed using Microsoft Excel and GraphPad Prism 8.0 software and analyzed statistically using a Student's t test (two‐tailed and unequal variances). Dose–response curves were fit to the data by using a three‐parameter sigmoidal dose–response equation with nonlinear regression, which yielded the reported response parameters of potency (EC50), efficacy (Emax), and […].

[2] = biological target: T2, PTH1R‐WT (Homo sapiens, UniProt Q03431); test: as above; assay type: cell-based; conditions: for EC50: Table 2, N-terminal analogs, means of four or three (M-PTH(1-11)) experiments, each in duplicate; for EC50 / pEC50: GS-22a cells; for Emax: Table 2, percent of maximum response of the same ligand on PTHR1-WT, four or three (M-PTH(1-11)) experiments; for pEC50: Suppl. Table 2, full-length ligands, mean ± SEM of three experiments, SEM; for Emax, %: Suppl. Table 2, percent of maximum response of the same ligand on PTH1R-WT, three experiments
T2 construct: expressed in transfected cells; plasmid TG-906 made by VectorBuilder
T2 sequence (Q03431 27-593 E90Y/S91D/E92V/E93P/K95Y/E96A): T1 sequence (Q03431 27-593 E90Y/S91D/E92V/E93P/K95Y/E96A/R186H) with H160R
Description: as §1, §2, §3

[3] = biological target: T3, PTH1R‐V204E (Homo sapiens, UniProt Q03431, V204E); test: as above; assay type: cell-based; conditions: for EC50: Table 2, N-terminal analogs, means of four or three (M-PTH(1-11)) experiments, each in duplicate; for EC50 / pEC50: GS-22a cells; for pEC50: Suppl. Table 2, full-length ligands, mean ± SEM of three experiments; for Emax, %: Suppl. Table 2, percent of maximum response of the same ligand on PTH1R-WT, three experiments
T3 construct: expressed in transfected cells; plasmid TG-928 made by VectorBuilder
T3 sequence (Q03431 27-593 E90Y/S91D/E92V/E93P/K95Y/E96A/V204E): T1 sequence (Q03431 27-593 E90Y/S91D/E92V/E93P/K95Y/E96A/R186H) with H160R, V178E
Description: as §1, §2, §3

[4] = biological target: T4, PTH1R‐P132L (Homo sapiens, UniProt Q03431, P132L); test: as above; assay type: cell-based; conditions: Table 1, percent of maximum response of the same ligand on PTH1R-WT, mean ± SEM of five experiments
T4 construct: expressed in transfected cells; plasmid TG-395 in pCDNA1
T4 sequence (Q03431 27-593 E90Y/S91D/E92V/E93P/K95Y/E96A/P132L): T1 sequence (Q03431 27-593 E90Y/S91D/E92V/E93P/K95Y/E96A/R186H) with P106L, H160R
Description: as §1, §2, §3

[5] = biological target: HA‐tagged human PTH1R‐V204E (human) (UniProt Q03431)
[6] = Table 2, percent of maximum response of the same ligand on PTHR1-WT, four or three (M-PTH(1-11)) experiments
[7] = Table 1, percent of maximum response of the same ligand on PTH1R-WT, mean ± SEM of five experiments, SEM

| Compound | EC50 [1] | Emax [1, 6] | EC50 [2] | Emax [2] | EC50 [3] | Emax [3, 6] | pEC50 ([1]; SEM) | Emax, % [1] | pEC50 [2] | Emax, % [2] | pEC50 ([3]; SEM) | Emax, % [3] | further results |
| --- | --- | --- | --- | --- | --- | --- | --- | --- | --- | --- | --- | --- | --- |
| CC[C@H](C)[C@H](NC(=O)[C@H](CCC(=O)O)NC(=O)C(C)(C)NC(=O)[C@@H](NC(=O)C1(N)CCCC1)C(C)C)C(=O)N[C@@H](CCC(N)=O)C(=O)N[C@@H](CC(C)C)C(=O)N[C@@H](CCSC)C(=O)N[C@@H](Cc1c[nH]cn1)C(=O)N[C@@H](CCC(N)=O)C(=O)N[C@@H](CCCCNC(=N)N)C(N)=O [M‐PTH(1‐11), modified (M)‐PTH(1‐11)] (H-[Ac5c]V[Aib]EIQLMHQ[hArg]-NH2) | 2.82 nM | 126 ± 14% | 0.191 nM | 100% | 0.759 nM | 80 ± 11% |  |  |  |  |  |  |  |
| CC[C@H](C)[C@H](NC(=O)[C@H](CCC(=O)O)NC(=O)[C@H](CO)NC(=O)[C@@H](NC(=O)[C@@H](N)CO)C(C)C)C(=O)N[C@@H](CCC(N)=O)C(=O)N[C@@H](CC(C)C)C(=O)N[C@@H](CCSC)C(=O)N[C@@H](Cc1c[nH]cn1)C(=O)N[C@@H](CC(N)=O)C(=O)N[C@@H](CC(C)C)C(=O)NCC(=O)N[C@@H](CCCCN)C(=O)N[C@@H](Cc1c[nH]cn1)C(=O)N[C@@H](CC(C)C)C(=O)N[C@@H](CC(N)=O)C(=O)N[C@@H](CO)C(=O)N[C@@H](CCSC)C(=O)N[C@@H](CCC(=O)O)C(=O)N[C@@H](CCCNC(=N)N)C(=O)N[C@H](C(=O)N[C@@H](CCC(=O)O)C(=O)N[C@@H](Cc1c[nH]c2ccccc12)C(=O)N[C@@H](CC(C)C)C(=O)N[C@@H](CCCNC(=N)N)C(=O)N[C@@H](CCCCN)C(=O)N[C@@H](CCCCN)C(=O)N[C@@H](CC(C)C)C(=O)N[C@@H](CCC(N)=O)C(=O)N[C@@H](CC(=O)O)C(=O)N[C@H](C(=O)N[C@@H](Cc1c[nH]cn1)C(=O)N[C@@H](CC(N)=O)C(=O)N[C@@H](Cc1ccccc1)C(N)=O)C(C)C)C(C)C [PTH(1‐34), human(h)PTH(1‐34)] |  |  |  |  |  |  |  |  |  |  |  |  | Emax [1, 7]: 118 ± 4%; Emax [3, 7]: 81 ± 4%; Emax [4]: ~45%; Emax, % ([4]; SEM): 44 ± 4% |
| SVSEIQLMHNLGKHLNSMERVEWLRKKL-NH2 [PTH(1‐28), hPTH(1‐28)] | 0.575 nM | 98 ± 10% | 0.776 nM | 100% | 0.447 nM | 78 ± 10% |  |  |  |  |  |  |  |
| hPTH(1‐84) [PTH(1-84)] |  |  |  |  |  |  | 9.25 | 96 ± 4% | 9.05 | 100 ± 0% | 9.19 | 115 ± 11% |  |
| hPTHrP(1‐141) [PTHrP(1-141)] |  |  |  |  |  |  | 8.90 | 108 ± 3% | 8.65 | 100 ± 0% | 8.55 | 133 ± 12% |  |
| human(h)PTH(1‐34) (peptide) |  |  |  |  |  |  |  |  |  |  |  |  | cAMP‐dependent GloSensor luminescence in transfected GS‐22a cells, potency: pEC50 with EC50 (nM) in parentheses [5]: 0.33 nM |
